Values of other authors as cited in US20040191218A1, “Pharmaceutical compositions and methods for treating cancer” (priority 2001, published 2004).

Experiments:
relapsing ovarian cancer = conditions: 14 patients with relapsing ovarian cancer, IFN-γ 2 mg/m^2 daily intravenously
[1] = tested on: neoplastic cells including ovarian cancer cells
ovarian cancer = conditions: intraperitoneal IFN-γ, 108 patients with residual disease at second-look laparotomy
[2] = carboplatin compared with cisplatin

Compound | Positive responses (relapsing ovarian cancer) [%] | antiproliferative effects on neoplastic cells [1] | overall response rate (ovarian cancer) [%] | neurotoxicity and nephrotoxicity [2]
IFN-γ: lymphokine produced by T-lymphocytes; natural or recombinant interferon gamma | 29 | exerts antiproliferative effects | 31 | –
[NH2][Pt]1([NH2])[O]C(=O)C2(CCC2)C(=O)[O]1 [carboplatin, diammine(1,1-cyclobutanedicarboxylato) platinum(II)] | – | – | – | less neurotoxicity and nephrotoxicity than cisplatin
